Results on 3 compounds are retold here after patent EP0406111A1, “Substituted arylamines and heteroarylamines, process for their preparation and pharmaceutical composition containing them” (SOCIETE DE CONSEILS DE […] D'APPLICATIONS SCIENTIFIQUES …, priority 1989, dated 1991).

The term IC50 denotes the point on the concentration scale where inhibition reaches its midpoint.

Where only a bound is given, the exact number is not on record here.

Assay [1] concerns the target T1, capture de (³H)dopamine par les synaptosomes striataux de rat (Rattus norvegicus, UniProt P23977).
T1 construct: Les culots résultants P2 contenant les synaptosomes bruts sont ensuite utilisés sans purification supplémentaire; from tissue; host or cells: Wistar rat striatum, crude synaptosomes (P2 pellet)
As to the kind of experiment: biochemical. As to conditions: rat striatal synaptosomes, 5 nM (3H)DA, 5 min at 30°C; read-out: [3H] DA IC50. The procedure:
Ce test est pratiqué selon la méthode utilisée par Vignon et Lazdunski en opérant de la façon suivante. Des rats Wistar pesant 200-250g sont tués par dislocation cervicale. Leurs cerveaux sont rapidement prélevés et les striata sont dissé-qués sur la glace. Les striata sont ensuite homogéné-isés (10 allers-retours) avec un homogénéisant Potter dans 50 volumes de tampon Tris HCl 10 mM à pH 7,4 contenant 0,32 M de sucrose. L'homogénat est ensuite centrifugé à 1000g pendant 10min à 4°C, puis le surnageant obtenu est recentrifugé à 10000g pendant 20min à 4°C. Les culots résultants P2 contenant les synaptosomes bruts sont ensuite utilisés sans purification supplémentaire.
On ajoute alors de la dopamine tritiée ((³H)DA, Amersham) à une concentration finale de 5 nM pendant 5 min à 30°C, et on interrompt sa capture par filtration de 150 µl du milieu d'incubation sur des filtres en fibres de verre GF/B (Whatman). La radioactivité retenue par les filtres est mesurée dans un compteur à scintillation liquide (LKB)avec 3 ml d'ACS (Amersham) comme scintillant. La capture non spécifique est mesurée à 4°C dans des incubations parallèles : elle est ensuite sous-traite de la capture totale mesurée à 30°C.
Les composés à tester sont solubilisés au départ dans de l'eau à une concentration de 1mM et les autres concentrations sont obtenues par des dilutions successives de cette solution mère dans l'eau.

The target of assay [2] is T2, complexe de recapture de la dopamine (Rattus norvegicus, UniProt P23977).
T2 construct: expériences de compétition sur les membranes de striatum préparées comme ci-dessus; from tissue; host or cells: rat striatal membranes
As to the kind of experiment: biochemical. The conditions noted are these: for IC50: rat striatal membranes, 0,2 nM (3H)BTCP, 90 min at 4°C, read-out: [3H] BTCP IC50; for Sélectivité IC50[^3H]TCP / IC50[^3H]BTCP: ratio of IC50 at the PCP receptor to IC50 at the dopamine reuptake complex. Type of assay: binding. The procedure:
Exemple 35 : Affinité des composés pour les sites de liaison de la (³H)BTCP sur les membranes striatales de cerveaux de rats.
Les striata de cerveaux de rats rapidement disséqués dans la glace sont homogénéisés avec un ultra turax pendant 30 s (position 6) dans 50 volumes d'une solution de sucrose 0,32 M tamponnée par du Tris-HCl 10 mM à pH = 7,4. L'homogénat est centrifugé à 4°C à 1000g pendant 10 mln, puis le surnageant obtenu est centrifugé à 40000 g à 4°C pendant 30 min et les culots obtenus sont repris dans 1 ml de tampon par striatum.
L'affinité des composés pour le complexe de recapture de la dopamine est déterminée par des expériences de compétition sur les membranes de striatum préparées comme ci-dessus. Le ligand radioactif utilisé est la (³H)BTCP (Service des Molécules Marquées du CEA, Saclay France) à 55Ci/mmol.
Après 90 min à 4°C, 3 aliquots de 250 µl sont filtrés sous vide sur des filtres de fibre de verre GF/B (Whatman). La liaison non spécifique est obtenue dans des expériences parallè-les réalisées en présence de 10 µM de BTCP non marquée. Elle est soustraite de la liaison totale pour obtenir la liaison spécifique.

For the next assay, the target named is récepteur de la PCP. The experiment in a line: Competition binding at the (3H)TCP sites on rat brain homogenates (Example 36). As to conditions: 1 nM (3H)TCP, 30 min at 25°C. From the text: Exemple 36 : Affinité des composés pour les sites de liaison de la (³H)TCP sur les homogénats de cerveaux de rats.
Dans cet essai on mesure les affinités des composés pour le récepteur de la PCP par des expériences de compétition sur des homogénats de cerveaux de rats. Le ligand radioactif utilisé est la (³H)TCP à une activité spécifique de 62 Ci/mmol (Service des Molécules Marquées, CEA Saclay France).
Les cerveaux de rats (sans le cervelet et le tronc cérébral) sont homogénéisés à l'ultra turax dans 20 volumes de tampon Hepes-Tris 50 mM, pH 7,7. Après centrifugation pendant 30 min à 15000 g le culot est repris dans le même volume de tampon et recentrifugé dans les mêmes conditions. Le culot final est repris dans du tampon Hepes-Tris 50 mM, pH 7,7 de façon à obtenir une concentration en protéine de 6 à 8 mg/ml.
Les expériences de compétition sont réalisées en incubant pendant 30 min les membranes (concentration finale en protéine : 0,6 à 0,8 mg/ml) en milieu tampon 5 mM Hepes-Tris, pH 7,7 à 25°C, en présence d'une concentration fixe de ligand tritié (1 nM)et de concentrations croissantes de composés à tester. Trois échantillons de 600 µL sont ensuite filtrés sur filtres de fibres de verre GF/B prétraités par du PEI (polyéthylénimine) à 0,1%. Les filtres sont rincés avec 3x5ml de tampon Tris-HCl 10 mM, NaCl 100 mM et la radioactivité retenue est mesurée dans un compteur à scintillation liquide. La liaison non spécifique est obtenue en présence de TCP […].

The next assay deals with souris Swiss. The experiment in a line: Locomotor activity of mice in the Boissier-Simon actimeter (Example 38). Type of assay: in vivo. As to conditions: 30 min after administration, beams crossed from 20th to 35th minute. The method, then: Exemple 38 : Mesure de l'activité locomotrice.
L'activité locomotrice de souris Swiss (mâles CD1, 25-30 g, Charles River, St Aubin lès Elbeuf, France) est mesurée dans l'actimètre Boissier-Simon (Apelex, Bagneux, France).
30 minutes après l'administration des composés à tester (10 mg/kg, i.p.), les souris sont introduites dans des cages individuelles en Plexiglass (L = 26 cm, l = 20 cm, h = 10 cm), équipées de deux cellules photoélectriques situées à 1 cm au-dessus du plancher. Chaque cellule est reliée à un compteur électromécanique. "L'activité locomotrice" correspond au nombre de rayons traversés, de la 20ème à la 35ème minute après introduction dans les cages d'actimétrie.

Assay [3] has as its system fixation de la (³H)BTCP dans le striatum de souris. The experiment in a line: Inhibition of in vivo (3H)BTCP binding in mouse striatum (Example 40). As to conditions: mice, compound s.c. 60 min before i.v. (3H)BTCP, sacrifice 30 min later. The procedure: Exemple 40 : Etude de l'inhibition de la fixation "in vivo" de (³H)BTCP chez la souris.
Pour cette étude, on utilise des souris Swiss mâles pesant 20 à 25g. Les souris sont réparties par groupes et alimentées avec de la nourriture standard de laboratoire et de l'eau à volonté, en réalisant des cycles de lumière artificielle de 12h consécutives à partir de 7h du matin. Les expériences sont effectuées entre 10h et 18h. Les mesures de la fixation "in vivo" de la (³H)BTCP sont effectuées comme il a été décrit par Maurice et al, 1989, de la façon suivante.
On injecte aux souris par voie sous-cutanée le composé à tester dans 100µl de solution physiologique pour les composés n^o 4 et n^o 16 et dans 100µl d'un mélange 1:1 en volume de solution physiologique et de DMSO pour le composé n^o 26. 60 min après cette injection on leur injecte dans une veine de la queue (³H)BTCP à une dose de 5µCi dans 100µl d'un mélange de solution physiologique et d'éthanol à 5%. 30min après cette injection, on sacrifie les souris. Les striata de cerveaux sont rapidement disséqués et homogénéisés avec un ultra turrax (IKA Verk) réglage maximum pendant 20s dans 80 volumes d'un tampon Na₂HPO₄, HCl 50mM, pH=7,4 à 4°C. Deux aliquots de […] sont filtrées sous pression réduite sur des filtres GF/B (Whatman) prétraités par de la polyéthylène imine à 0,5% (Aldrich). On rince ensuite les filtres deux fois avec 5ml d'un tampon NaCl 50mM, tris-HCl 10mM, pH=7,4 à 4°C. La radioactivité fixée qui reste sur les filtres, et la radioactivité totale, obtenue à partir des deux aliquots de 200µl d'homogénats sont mesurées dans des flacons de 6ml contenant 3,5ml de ACS (Amersham) avec un spectrophotomètre à scintillation liquide Excel 1410 (LKB). La fixation non spécifique est définie comme la radioactivité présente dans chaque région après prétraitement des animaux avec de la BTCP (40mg/kg dans 100µl de solution saline), injectée par voie sous-cutanée, 60min avant l'injection de (³H)BTCP. Les résultats sont exprimés sous la forme des rapports radioactivité fixée / radioactivité libre (B/F) dans lesquels le taux de (³H)BTCP libre est estimé en soustrayant la radioactivité fixée de la radioactivité totale.

T2 sequence (P23977 whole entry, one chain of several): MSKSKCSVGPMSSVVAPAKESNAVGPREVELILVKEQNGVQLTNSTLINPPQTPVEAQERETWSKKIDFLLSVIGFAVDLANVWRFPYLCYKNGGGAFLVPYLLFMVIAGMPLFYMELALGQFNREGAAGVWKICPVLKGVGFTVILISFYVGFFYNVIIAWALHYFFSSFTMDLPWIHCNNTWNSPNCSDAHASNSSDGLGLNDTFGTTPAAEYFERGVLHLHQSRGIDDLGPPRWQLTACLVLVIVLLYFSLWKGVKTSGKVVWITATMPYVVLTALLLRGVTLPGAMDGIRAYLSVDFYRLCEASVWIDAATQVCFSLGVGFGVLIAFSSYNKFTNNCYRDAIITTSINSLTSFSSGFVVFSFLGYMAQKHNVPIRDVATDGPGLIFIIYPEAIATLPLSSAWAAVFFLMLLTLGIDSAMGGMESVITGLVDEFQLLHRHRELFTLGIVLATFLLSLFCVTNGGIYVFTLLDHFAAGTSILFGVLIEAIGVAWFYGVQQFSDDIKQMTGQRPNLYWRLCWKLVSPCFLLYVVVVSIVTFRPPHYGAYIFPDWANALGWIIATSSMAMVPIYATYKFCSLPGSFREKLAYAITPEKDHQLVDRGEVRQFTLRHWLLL
T1 sequence (P23977 whole entry): as the sequence (P23977 whole entry, one chain of several) above

Take `ICC1CCCN(C2(c3cc4ccccc4s3)CCCCC2)C1` (stereo not drawn) [composé n^o 11]: the IC50 in assay [1] was 0.0543 µM; in assay [2] it was 0.026 µM; on récepteur de la PCP, over 100 µM. Besides, the “Sélectivité IC50[^3H]TCP / IC50[^3H]BTCP” value in assay [2] was >>3846.

As for `c1ccc2sc(C3(N4CCC5(CC4)OCCO5)CCCCC3)cc2c1` [composé n^o 5, (benzo(b)thiophényl-2)-1 ((éthylènekétal-4 pipéridino)-1)-1 cyclohexane], the half-inhibitory concentration (IC50) in assay [1] was 0.0657 µM; in assay [2] it was 0.0355 µM; at récepteur de la PCP, over 100 µM. Besides, in assay [2], the “Sélectivité IC50[^3H]TCP / IC50[^3H]BTCP” value is listed as >>2816.

With `c1ccc2cc(C3(N4CCCCC4)CCCCC3)ccc2c1` [composé n^o 16, (naphtyl-2)-1 (pipéridi-no-1)-1 cyclohexane], the IC50 was 0.0363 µM in assay [1] and 0.0148 µM in assay [2]. The “Activité locomotrice Variation (%) par rapport aux témoins (100%) pour la dose 10 mg/kg,i.p.” value in the assay with souris Swiss is given as “+269±57%”. Besides, the “ID₅₀ (mg/kg)” value in assay [3] is reported as 2,66 mg/kg.
